From ChEMBL document CHEMBL1201862, “PubChem BioAssay data set” (2004)
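Interpolation was linear, between the two tested concentrations surrounding the appropriate level; five concentrations were tested over 48 hours in 96-well plates. GI50 is the concentration that inhibits growth by half.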 Active and inactive are the calls of the source. No stated cut-off is given here; in the data, active = GI50 up to about 1.1 µM and inactive = higher.

Key:
Assay in all cases: NCI anticancer screen, dose series, 48 h
SNB-75 = tested on: SNB-75
UO-31 = tested on: UO-31
UACC-257 = tested on: UACC-257
K562 = tested on: K562
786-0 = tested on: 786-0
SF-295 = tested on: SF-295
UACC-62 = tested on: UACC-62
IGROV-1 = tested on: IGROV-1
SK-MEL-5 = tested on: SK-MEL-5
COLO 205 = tested on: COLO 205
DLD-1 = tested on: DLD-1
RPMI-8226 = tested on: RPMI-8226
M14 = tested on: M14
CAKI-1 = tested on: CAKI-1
Malme-3M = tested on: Malme-3M
ACHN = tested on: ACHN

Compound	GI50 (SNB-75)	GI50 (UO-31)	GI50 (UACC-257)	GI50 (K562)	GI50 (786-0)	GI50 (SF-295)	GI50 (UACC-62)	GI50 (IGROV-1)	GI50 (SK-MEL-5)	GI50 (COLO 205)	GI50 (DLD-1)	GI50 (RPMI-8226)	GI50 (M14)	GI50 (CAKI-1)	GI50 (Malme-3M)	GI50 (ACHN)
CCCCCCCCCCCCCCCCCC(=O)NCC(COP(=O)(O)O)OCC (configuration not stated)	26.1 µM (inactive)	34.1 µM (inactive)	> 100 µM (inactive)	> 100 µM (inactive)	30.7 µM (inactive)	18.5 µM (inactive)	54.3 µM (inactive)	49.9 µM (inactive)	> 100 µM (inactive)	> 100 µM (inactive)	> 100 µM (inactive)	> 100 µM (inactive)	77.1 µM (inactive)	31.2 µM (inactive)	> 100 µM (inactive)	
Cc1ccc(C(=O)O/N=C2/CCC/C2=C\c2ccccc2)cc1	69.3 µM (inactive)	> 100 µM (inactive)	> 100 µM (inactive)	> 100 µM (inactive)	> 100 µM (inactive)	> 100 µM (inactive)	> 100 µM (inactive)	> 100 µM (inactive)	> 100 µM (inactive)	> 100 µM (inactive)	> 100 µM (inactive)	> 100 µM (inactive)	> 100 µM (inactive)	> 100 µM (inactive)	> 100 µM (inactive)	> 100 µM (inactive)
CC(c1ccc(Br)cc1)C(C(=O)O)C(=O)O (configuration not stated)	> 100 µM (inactive)	> 100 µM (inactive)	> 100 µM (inactive)	> 100 µM (inactive)	> 100 µM (inactive)	> 100 µM (inactive)	> 100 µM (inactive)	> 100 µM (inactive)	> 100 µM (inactive)	> 100 µM (inactive)	> 100 µM (inactive)	> 100 µM (inactive)	> 100 µM (inactive)	> 100 µM (inactive)	> 100 µM (inactive)	> 100 µM (inactive)
CN1/C(=C/C(=O)c2ccc(Cl)cc2)Nc2ccccc21	> 100 µM (inactive)	13.2 µM (inactive)	31.9 µM (inactive)	35.9 µM (inactive)	65.6 µM (inactive)	44.9 µM (inactive)	44.3 µM (inactive)	38.6 µM (inactive)	25.5 µM (inactive)	38 µM (inactive)	37.4 µM (inactive)	31.8 µM (inactive)	67.3 µM (inactive)	20 µM (inactive)	> 100 µM (inactive)	33 µM (inactive)
CCCCCCCC(=O)OC(CBr)COC(=O)C(C)(C)C (configuration not stated)	12.1 µM (inactive)	> 100 µM (inactive)	> 100 µM (inactive)	32.5 µM (inactive)	> 100 µM (inactive)	> 100 µM (inactive)	> 100 µM (inactive)	> 100 µM (inactive)	> 100 µM (inactive)	> 100 µM (inactive)	> 100 µM (inactive)	21.6 µM (inactive)	> 100 µM (inactive)	> 100 µM (inactive)	> 100 µM (inactive)	> 100 µM (inactive)
CC(C)(C)OP(=O)(OC(C)(C)C)C(O)c1ccc(/C=C(\C#N)C(N)=O)cc1 (configuration not stated)	> 100 µM (inactive)	> 100 µM (inactive)	> 100 µM (inactive)	> 100 µM (inactive)	> 100 µM (inactive)	> 100 µM (inactive)	> 100 µM (inactive)	> 100 µM (inactive)		> 100 µM (inactive)	> 100 µM (inactive)	> 100 µM (inactive)	> 100 µM (inactive)	> 100 µM (inactive)	> 100 µM (inactive)	> 100 µM (inactive)
O=S(=O)(O)c1ccc(/N=N/c2nc(C(F)(F)F)c(C(F)(F)F)[nH]2)cc1	75.9 µM (inactive)	34 µM (inactive)	69.5 µM (inactive)	53.8 µM (inactive)	> 100 µM (inactive)	65.2 µM (inactive)	28.4 µM (inactive)	> 100 µM (inactive)	> 100 µM (inactive)	74.8 µM (inactive)	43.5 µM (inactive)	> 100 µM (inactive)	20.8 µM (inactive)	29.2 µM (inactive)	29.2 µM (inactive)	> 100 µM (inactive)
COc1ccc(/C(=N/NC(=O)NN)C(c2ccc(OC)cc2)C2(O)CNc3c(Cl)cc(Cl)cc32)cc1 (configuration not stated)	> 100 µM (inactive)	> 100 µM (inactive)	> 100 µM (inactive)	> 100 µM (inactive)	> 100 µM (inactive)	> 100 µM (inactive)	99.1 µM (inactive)	> 100 µM (inactive)	> 100 µM (inactive)	> 100 µM (inactive)	> 100 µM (inactive)	60.8 µM (inactive)	> 100 µM (inactive)		> 100 µM (inactive)	> 100 µM (inactive)
O=C1C=C(Br)C(=O)C(Br)=C1	> 100 µM (inactive)	> 100 µM (inactive)	> 100 µM (inactive)	33.3 µM (inactive)	> 100 µM (inactive)	> 100 µM (inactive)	> 100 µM (inactive)	> 100 µM (inactive)	> 100 µM (inactive)	> 61.4 µM (inactive)	> 96.6 µM (inactive)	37.6 µM (inactive)	> 100 µM (inactive)	> 100 µM (inactive)	> 100 µM (inactive)	> 85.5 µM (inactive)
COc1ccc(N2C(=O)C3c4[nH]c5ccccc5c4C4CCCCCCCCCCC4C3C2=O)cc1 (configuration not stated)	12.7 µM (inactive)	> 40.6 µM (inactive)	31.6 µM (inactive)	19 µM (inactive)	3.65 µM (inactive)	10.7 µM (inactive)	18.5 µM (inactive)	> 28.2 µM (inactive)	21.7 µM (inactive)	14.7 µM (inactive)	8.77 µM (inactive)	18.7 µM (inactive)	7.8 µM (inactive)	35.4 µM (inactive)	17.1 µM (inactive)	29.4 µM (inactive)
CCOC(=O)c1[nH]c(COC(C)=O)c2c1CCCCCCCCCC2	> 100 µM (inactive)	> 100 µM (inactive)	> 100 µM (inactive)	> 100 µM (inactive)	> 100 µM (inactive)	> 100 µM (inactive)	> 100 µM (inactive)	> 100 µM (inactive)	> 100 µM (inactive)	> 100 µM (inactive)	> 100 µM (inactive)	> 100 µM (inactive)	> 100 µM (inactive)	> 100 µM (inactive)	> 100 µM (inactive)	
COc1cc2c(cc1C1=NC(C)(C)CO1)OCO2	> 100 µM (inactive)	> 100 µM (inactive)	> 100 µM (inactive)	> 100 µM (inactive)	> 100 µM (inactive)	> 100 µM (inactive)	> 100 µM (inactive)	> 100 µM (inactive)	> 100 µM (inactive)	> 100 µM (inactive)	> 100 µM (inactive)	> 100 µM (inactive)	> 100 µM (inactive)	> 100 µM (inactive)	> 100 µM (inactive)	> 100 µM (inactive)
CN(C)c1ccc(/C=c2\sc3nnc(-c4cccnc4)n3c2=O)cc1	> 100 µM (inactive)	> 100 µM (inactive)	> 100 µM (inactive)	> 100 µM (inactive)	> 100 µM (inactive)	> 100 µM (inactive)	> 100 µM (inactive)	> 100 µM (inactive)	> 100 µM (inactive)	> 100 µM (inactive)	> 100 µM (inactive)	> 100 µM (inactive)	> 100 µM (inactive)	> 100 µM (inactive)	> 100 µM (inactive)	> 100 µM (inactive)
CC(C)C(Sc1nc(-c2ccccc2)c(-c2ccccc2)[nH]1)c1n[nH]c(=S)n1-c1ccccc1 (configuration not stated)	66.5 µM (inactive)	22.8 µM (inactive)	31.7 µM (inactive)		30.8 µM (inactive)	22.3 µM (inactive)	11.5 µM (inactive)	26.4 µM (inactive)	17.7 µM (inactive)	23.9 µM (inactive)	41.5 µM (inactive)	21.2 µM (inactive)	19.2 µM (inactive)		21.2 µM (inactive)	29.6 µM (inactive)
CSc1nc(NC2OCC(OC(C)=O)C(OC(C)=O)C2OC(C)=O)c(/N=C\C=N\c2c(NC3OCC(OC(C)=O)C(OC(C)=O)C3OC(C)=O)nc(SC)n(C)c2=O)c(=O)n1C (configuration not stated)	> 100 µM (inactive)	> 100 µM (inactive)	> 100 µM (inactive)	> 100 µM (inactive)	> 100 µM (inactive)	> 100 µM (inactive)	> 100 µM (inactive)	> 100 µM (inactive)	> 100 µM (inactive)	> 100 µM (inactive)	> 100 µM (inactive)	> 100 µM (inactive)	> 100 µM (inactive)		> 100 µM (inactive)	> 100 µM (inactive)
C=CC[P@@]1(=O)O[C@H](c2ccccc2)C(C)N1C(C)C (some centres not stated)	> 100 µM (inactive)	> 100 µM (inactive)		> 100 µM (inactive)	> 100 µM (inactive)	> 100 µM (inactive)	> 100 µM (inactive)	> 100 µM (inactive)	> 100 µM (inactive)		> 100 µM (inactive)	> 100 µM (inactive)	> 100 µM (inactive)		> 100 µM (inactive)	> 100 µM (inactive)
COc1cc(/C=C\c2ccccc2)cc(OC)c1OC	2.1 µM (inactive)	4.46 µM (inactive)	5.14 µM (inactive)	0.514 µM (active)	5.08 µM (inactive)	2.18 µM (inactive)	2.49 µM (inactive)	4.65 µM (inactive)	3.08 µM (inactive)	3.08 µM (inactive)	3.19 µM (inactive)	4.18 µM (inactive)	2.51 µM (inactive)	4.36 µM (inactive)	2.95 µM (inactive)	6.98 µM (inactive)
